These results are taken from the kinase profiling compilation of Christmann-Franck et al. (2016).

Holding throughout (assay): radiometric filter-binding kinase assay, Kinase HotSpot
What all share (conditions): compound 0.5 µM; ATP 10 µM

Experiment [1] deals with PRKCQ (human), Q04759 [P330L].
For experiment [2], the system named is MAP2K6 (human), P52564 [S207E/T211E].
For experiment [3], the system named is MKNK1 (human), Q9BUB5 [T385D; 165-205 del].
The subject of experiment [4] is FLT4 (human), P35916 [Q890H].

MKNK1 (human), Q9BUB5 [T385D; 165-205 del], sequence (Q9BUB5 whole entry, looked up, stated change not applied): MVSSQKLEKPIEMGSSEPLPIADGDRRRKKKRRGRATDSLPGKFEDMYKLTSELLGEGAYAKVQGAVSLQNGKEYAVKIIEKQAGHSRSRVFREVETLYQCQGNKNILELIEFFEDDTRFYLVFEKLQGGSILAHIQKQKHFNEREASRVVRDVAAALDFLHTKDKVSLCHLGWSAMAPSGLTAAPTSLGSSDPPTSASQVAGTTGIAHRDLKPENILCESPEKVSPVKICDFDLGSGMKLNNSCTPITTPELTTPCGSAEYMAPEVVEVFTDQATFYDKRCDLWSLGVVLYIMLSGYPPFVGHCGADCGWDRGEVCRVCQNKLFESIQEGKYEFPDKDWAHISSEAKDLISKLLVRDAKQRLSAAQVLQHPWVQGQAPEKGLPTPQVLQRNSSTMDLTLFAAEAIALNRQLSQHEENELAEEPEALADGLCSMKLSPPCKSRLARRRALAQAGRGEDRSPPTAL
PRKCQ (human), Q04759 [P330L], sequence (Q04759 whole entry P330L, looked up): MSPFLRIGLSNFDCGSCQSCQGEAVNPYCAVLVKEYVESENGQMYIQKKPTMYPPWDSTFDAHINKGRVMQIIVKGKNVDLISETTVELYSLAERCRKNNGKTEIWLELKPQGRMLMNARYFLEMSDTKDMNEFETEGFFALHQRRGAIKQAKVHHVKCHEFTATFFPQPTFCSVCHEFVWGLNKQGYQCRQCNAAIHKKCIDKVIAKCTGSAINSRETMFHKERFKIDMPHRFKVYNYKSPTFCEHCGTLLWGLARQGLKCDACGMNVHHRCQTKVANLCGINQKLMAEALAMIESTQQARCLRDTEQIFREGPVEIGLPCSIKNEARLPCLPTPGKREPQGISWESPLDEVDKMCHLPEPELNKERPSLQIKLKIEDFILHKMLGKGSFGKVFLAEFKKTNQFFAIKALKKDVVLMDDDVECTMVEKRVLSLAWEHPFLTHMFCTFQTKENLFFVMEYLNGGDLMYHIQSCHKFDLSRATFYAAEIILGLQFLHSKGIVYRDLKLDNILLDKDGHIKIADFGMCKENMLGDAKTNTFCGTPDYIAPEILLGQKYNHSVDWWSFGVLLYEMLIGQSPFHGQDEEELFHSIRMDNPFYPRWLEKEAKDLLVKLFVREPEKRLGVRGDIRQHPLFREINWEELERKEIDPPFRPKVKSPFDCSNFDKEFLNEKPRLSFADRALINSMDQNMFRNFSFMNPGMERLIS
FLT4 (human), P35916 [Q890H], sequence (P35916 whole entry, looked up, stated change not applied): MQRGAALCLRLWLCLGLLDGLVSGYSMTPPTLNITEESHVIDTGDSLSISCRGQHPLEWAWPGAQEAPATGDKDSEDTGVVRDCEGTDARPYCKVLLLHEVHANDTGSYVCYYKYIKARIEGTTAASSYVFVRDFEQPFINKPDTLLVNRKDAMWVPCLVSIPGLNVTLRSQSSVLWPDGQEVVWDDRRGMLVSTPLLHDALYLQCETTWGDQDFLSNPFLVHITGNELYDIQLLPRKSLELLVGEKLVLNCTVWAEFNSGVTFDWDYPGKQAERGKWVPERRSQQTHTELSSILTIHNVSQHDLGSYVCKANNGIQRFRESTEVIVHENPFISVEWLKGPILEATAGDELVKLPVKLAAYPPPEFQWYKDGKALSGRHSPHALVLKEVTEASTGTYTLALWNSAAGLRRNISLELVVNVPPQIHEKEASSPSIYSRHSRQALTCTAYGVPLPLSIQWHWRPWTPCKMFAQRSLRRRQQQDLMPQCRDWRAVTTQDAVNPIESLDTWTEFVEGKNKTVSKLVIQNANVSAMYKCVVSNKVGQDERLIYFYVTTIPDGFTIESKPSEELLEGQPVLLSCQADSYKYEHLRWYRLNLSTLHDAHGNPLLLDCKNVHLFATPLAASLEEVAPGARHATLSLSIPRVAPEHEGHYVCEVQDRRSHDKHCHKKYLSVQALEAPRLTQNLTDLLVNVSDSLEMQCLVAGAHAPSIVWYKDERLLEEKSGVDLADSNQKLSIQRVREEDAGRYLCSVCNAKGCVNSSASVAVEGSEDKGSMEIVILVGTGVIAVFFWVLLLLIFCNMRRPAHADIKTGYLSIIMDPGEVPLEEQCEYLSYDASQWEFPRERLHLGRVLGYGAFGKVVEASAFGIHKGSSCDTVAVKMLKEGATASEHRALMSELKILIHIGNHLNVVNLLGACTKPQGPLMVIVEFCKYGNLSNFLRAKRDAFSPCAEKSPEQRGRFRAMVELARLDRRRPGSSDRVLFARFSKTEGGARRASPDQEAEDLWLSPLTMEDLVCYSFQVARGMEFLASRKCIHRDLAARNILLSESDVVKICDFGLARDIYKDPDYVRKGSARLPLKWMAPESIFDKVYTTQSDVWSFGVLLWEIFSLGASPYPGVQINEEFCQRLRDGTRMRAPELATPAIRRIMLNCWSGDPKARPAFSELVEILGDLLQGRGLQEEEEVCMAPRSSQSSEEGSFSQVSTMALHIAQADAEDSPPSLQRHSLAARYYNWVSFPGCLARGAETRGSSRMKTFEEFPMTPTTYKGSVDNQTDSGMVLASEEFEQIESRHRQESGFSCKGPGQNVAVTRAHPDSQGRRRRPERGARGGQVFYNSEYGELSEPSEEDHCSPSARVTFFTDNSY
MAP2K6 (human), P52564 [S207E/T211E], sequence (P52564 whole entry S207E/T211E, looked up): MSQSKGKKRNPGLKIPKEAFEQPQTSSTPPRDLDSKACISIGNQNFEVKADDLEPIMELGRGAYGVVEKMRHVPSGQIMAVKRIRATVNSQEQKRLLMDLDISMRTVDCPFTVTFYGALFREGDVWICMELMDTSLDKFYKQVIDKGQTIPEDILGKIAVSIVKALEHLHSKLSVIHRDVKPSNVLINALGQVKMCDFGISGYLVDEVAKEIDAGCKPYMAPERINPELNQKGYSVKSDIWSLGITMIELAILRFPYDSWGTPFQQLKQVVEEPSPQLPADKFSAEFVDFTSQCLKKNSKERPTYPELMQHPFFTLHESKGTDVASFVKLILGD

Broadly, the residual activity is the signal under treatment as a percentage of the control signal. Turning to `CCn1cnc2c(Nc3cccc(Cl)c3)nc(N[C@@H]3CCCC[C@@H]3N)nc21`, the residual activity came out at 93.3% in experiment [1], 100% in experiment [2], 101% in experiment [3] and 105% in experiment [4].

On to `FC(F)(F)c1ccc(/C=C/c2nc(COc3ccc(CCCCn4ccnn4)cc3)co2)cc1`, for which the residual activity was determined as 99.9% in experiment [1], 100% in experiment [2], 89.5% in experiment [3] and 98% in experiment [4].

On to `O=C1NC(=O)C(c2cn(CCCO)c3ncccc23)=C1c1cnccn1`, for which the residual activity in experiment [1] came to 81.7%; in experiment [2] it was 91.1%; in experiment [3] it was 100%; in experiment [4] it was 92.3%.

As to `O=C1Nc2ccccc2/C1=C\c1c(Cl)[nH]c2ccccc12`, the residual activity in experiment [1] was 91.7%; in experiment [2], 93.4%; in experiment [3] it was 105%; in experiment [4] it was 108%.

Turning to `O=C1NC(=O)/C(=C\c2ccc3nccnc3c2)S1`, the residual activity in experiment [1] was 92.8%; in experiment [2], 91.2%; in experiment [3] it was 96.5%; in experiment [4], 108%.

As for `CCCCc1c(-c2ccc(O)cc2)[nH]c2nccnc12`, the residual activity in experiment [1] stood at 118%; in experiment [2], 100%; in experiment [3] it was 94.5%; in experiment [4] it was 77.4%.

As to `CNc1cc2c(Nc3cccc(Br)c3)ncnc2cn1`, the residual activity was 110% in experiment [1], 94.5% in experiment [2], 55.2% in experiment [3] and 97% in experiment [4].

For the compound `Cc1cc(Nc2nc(-c3ccccc3)nc3ccccc23)n[nH]1`, the residual activity in experiment [1] was found to be 82.3%; in experiment [2], 93.2%; in experiment [3], 93.5%; in experiment [4], 44.9%.

As to `Nc1ccc2ncnc(NCCc3ccc(Oc4ccccc4)cc3)c2c1`, the residual activity in experiment [1] came to 108%; in experiment [2], 96.6%; in experiment [3] it was 106%; in experiment [4], 101%.

In the case of `O=C1NC(=O)c2cc(Nc3ccc(F)cc3)c(Nc3ccc(F)cc3)cc21`, the residual activity in experiment [1] came out at 98.7%; in experiment [2] it was 110%; in experiment [3], 103%; in experiment [4], 102%.

Take `O=C(Nc1cccc(Nc2cc(Nc3cccc(C(F)(F)F)c3)ncn2)c1)C1CC1`: the residual activity in experiment [1] turned out to be 87.8%; in experiment [2], 108%; in experiment [3], 96.7%; in experiment [4], 107%.

Consider `COc1cc2ncc(-c3ccccc3)nc2cc1OC`, for which the residual activity in experiment [1] was found to be 101%; in experiment [2] it was 94.9%; in experiment [3], 104%; in experiment [4], 90.4%.

With `CC(=O)c1ccc(N2CCOCC2)cc1O`, the residual activity in experiment [1] was 99.5%; in experiment [2] it was 94.2%; in experiment [3], 102%; in experiment [4] it was 112%.

For `CCC(=O)Nc1ccc2ncnc(Nc3cccc(Br)c3)c2c1`, the residual activity in experiment [1] was 96.3%; in experiment [2] it was 94.5%; in experiment [3], 82.8%; in experiment [4], 91.5%.

On to `COc1ccc(CNC(=O)Nc2ncc([N+](=O)[O-])s2)cc1`, for which the residual activity in experiment [1] amounted to 96.9%; in experiment [2], 85.9%; in experiment [3], 98.4%; in experiment [4], 91.2%.

`NC(=O)c1ccc(N(C(N)=O)c2c(F)cccc2F)nc1-c1ccc(F)cc1F`: the residual activity in experiment [1] came out at 85.1%; in experiment [2], 96.5%; in experiment [3] it was 91.4%; in experiment [4], 97.5%.

With `N/C(=N\N=C/c1ccc(-c2cccc([N+](=O)[O-])c2)o1)N[N+](=O)[O-]`, the residual activity in experiment [1] amounted to 94.6%; in experiment [2], 111%; in experiment [3], 97.4%; in experiment [4], 86.3%.

As to `COc1ccc(OC)c2c(=S)c3ccccc3[nH]c12`, the residual activity in experiment [1] was 98.9%; in experiment [2], 89.9%; in experiment [3], 115%; in experiment [4], 98.1%.

`CN([C@@H](Cc1ccc(OS(=O)(=O)c2cccc3cnccc23)cc1)C(=O)N1CCN(c2ccccc2)CC1)S(=O)(=O)c1cccc2cnccc12`: the residual activity in experiment [1] was determined as 108%; in experiment [2], 104%; in experiment [3], 106%; in experiment [4], 90.5%.

For `CC(C)n1cnc2c(Nc3cccc(Cl)c3)nc(NCCO)nc21`, the residual activity in experiment [1] turned out to be 91.4%; in experiment [2], 88.9%; in experiment [3], 98.7%; in experiment [4], 92.6%.

As to `CC(C)[C@H](CO)Nc1nc(Nc2cccc(Cl)c2)c2ncn(C(C)C)c2n1`, the residual activity is 127% in experiment [1], 105% in experiment [2], 79.8% in experiment [3] and 110% in experiment [4].

In the case of `Nc1ncnc2[nH]nc(Nc3ccc(F)cc3)c12`, the residual activity in experiment [1] amounted to 103%; in experiment [2] it was 87.6%; in experiment [3], 75.2%; in experiment [4] it was 92.9%.

As for `O=C(Nc1ccc(Cl)cc1)c1ccccc1NCc1ccncc1`, the residual activity was 110% in experiment [1], 117% in experiment [2], 118% in experiment [3] and 44.8% in experiment [4].

On to `CC(C)N(CCC(=O)c1ccc2ccccc2c1)Cc1ccccc1`, for which the residual activity was determined as 122% in experiment [1], 93.2% in experiment [2], 105% in experiment [3] and 94% in experiment [4].

Take `COc1cc2nccc(Oc3ccc(NC(=S)NC(=O)c4ccccc4C)cc3)c2cc1OC`: the residual activity in experiment [1] came out at 107%; in experiment [2] it was 94.9%; in experiment [3] it was 93.2%; in experiment [4], 73.8%.

`COc1ccc2c(c[n+](C)c3c4cc5c(cc4ccc23)OCO5)c1OC`: the residual activity came out at 99.9% in experiment [1], 95% in experiment [2], 102% in experiment [3] and 97.6% in experiment [4].

With `O=c1cc(N2CCOCC2)oc2c(-c3ccccc3)cccc12`, the residual activity amounted to 112% in experiment [1], 97.5% in experiment [2], 103% in experiment [3] and 96.4% in experiment [4].

Regarding `O=C1Cc2c([nH]c3ccc(Br)cc23)-c2ccccc2N1`, the residual activity stood at 114% in experiment [1], 95.3% in experiment [2], 98.4% in experiment [3] and 78.7% in experiment [4].

As to `N#CC(C#N)=C(N)/C(C#N)=C/c1ccc(O)cc1`, the residual activity in experiment [1] amounted to 99.8%; in experiment [2] it was 94%; in experiment [3], 77.2%; in experiment [4] it was 95.9%.

As for `COc1cc2ncnc(Nc3cccc(Cl)c3)c2cc1OC`, the residual activity turned out to be 105% in experiment [1], 88.7% in experiment [2], 80.8% in experiment [3] and 99.3% in experiment [4].

With `Nc1cccc(-c2cc3c(Oc4cccc(O)c4)ncnc3[nH]2)c1`, the residual activity was 64.5% in experiment [1], 90.1% in experiment [2], 87.6% in experiment [3] and 15.8% in experiment [4].

As for `COc1cc2c(cc1OC)-c1[nH]nc(Nc3cccc(F)c3)c1C2`, the residual activity came out at 108% in experiment [1], 87% in experiment [2], 89.8% in experiment [3] and 82.6% in experiment [4].

For the compound `O=C1Nc2ccccc2/C1=C1\Nc2ccccc2\C1=N/O`, the residual activity is 99.1% in experiment [1], 83.5% in experiment [2], 99.6% in experiment [3] and 53% in experiment [4].

Regarding `COc1cc2ncnc(Nc3ccc(O)c(Br)c3)c2cc1OC`, the residual activity in experiment [1] was 92.8%; in experiment [2] it was 84.9%; in experiment [3], 32.7%; in experiment [4], 48.5%.

On to `COc1cc2c(N3CCN(C(=O)Nc4ccc(OC(C)C)cc4)CC3)ncnc2cc1OCCCN1CCCCC1`, for which the residual activity in experiment [1] amounted to 103%; in experiment [2], 102%; in experiment [3], 89.7%; in experiment [4] it was 94.6%.

In the case of `CC(C)(C)c1nc2c3ccc(F)cc3c3c(=O)[nH]ccc3c2[nH]1`, the residual activity in experiment [1] came out at 66.8%; in experiment [2], 89%; in experiment [3] it was 101%; in experiment [4], 71.2%.

`O=C1NC(=O)c2c1c1c3ccccc3n3c1c1c2c2ccccc2n1C1CCC3O1`: the residual activity turned out to be 43.2% in experiment [1], 19.3% in experiment [2], 48.6% in experiment [3] and 4.97% in experiment [4].

Turning to `CCN(CC)CCCCN1c2ccccc2Oc2ccc(Cl)cc21`, the residual activity in experiment [1] stood at 97.5%; in experiment [2] it was 102%; in experiment [3], 95.6%; in experiment [4], 98.8%.

For the compound `O=C1NC(=O)c2c1c1c3ccccc3[nH]c1c1[nH]c3cc(Br)ccc3c21`, the residual activity was determined as 93.1% in experiment [1], 94.2% in experiment [2], 81.5% in experiment [3] and 28% in experiment [4].

On to `O=C(O)c1ccc2c3c1cccc3c(=O)n1c3ccccc3nc21`, for which the residual activity turned out to be 117% in experiment [1], 103% in experiment [2], 60.3% in experiment [3] and 82.5% in experiment [4].

For `O=c1cc(-c2cccc3c2Sc2ccccc2S3)oc(N2CCOCC2)c1`, the residual activity in experiment [1] came to 112%; in experiment [2] it was 107%; in experiment [3], 99.5%; in experiment [4] it was 104%.

In the case of `Nc1ncnc2c1cnn2-c1ccccc1`, the residual activity in experiment [1] was 102%; in experiment [2] it was 90.8%; in experiment [3], 81.4%; in experiment [4], 108%.
